# Molecular target: T1, HIV-1 protease wild type protein (Human immunodeficiency virus type 1 group M subtype B, UniProt P04585)
# T1 construct: HIV-1 protease wild type protein; purchased AscoProt Biotech, Prague, Czech Republic
# Assay: Biochemical protease assay
# Description: For the determination of their in vitro activity on HIV proteases the test substances are dissolved in DMSO and serially diluted. In each case 0.5 μl of substance dilution, 20 μl of 0.2-1 nM HIV-1 protease wild type or mutant protein (e.g., multiresistant isolate “35513”: L10I, I15V, L19I, K20R, E35D, M36I, R41K, I54V, L63P, H69K, A71V, T74P, I84V, L89M, L90M, 193L, AscoProt Biotech, Prague, Czech Republic) in buffer 1 (50 mM sodium acetate pH 4.9, 0.02% BSA, 0.1 mM EDTA, 0.5 mM DTT) and 20 μl of 8 μM substrate (M1865 from Bachem, Bubendorf, Switzerland; Matayoshi et al., Science 1990, 247, 954-8) in buffer 1 are added successively to a 384 well microtiter plate (Greiner, Frickenhausen, Germany), incubated for 60-180 minutes at 32° C. and the fluorescence is measured (e.g., Tecan Safire, 340 nm extinction, 520 nm emission). IC50 values are determined by graphical plotting the substance concentration against the percentage inhibition.
row,SMILES,IC50
1,"CCOC1CCCCC12OC(=O)C(c1cc(Cl)c(-c3cccc(S(C)(=O)=O)c3)cc1C)=C2O (single isomer, unassigned) [Example 75]",≤ 100 nM
2,"CCOC1CCCCC12OC(=O)C(c1cc(Cl)c(-c3ccccc3)cc1C)=C2O (single isomer, unassigned) [Example 77]",≤ 100 nM
3,"CCOC1CCCCC12OC(=O)C(c1cc(C)c(-c3ccc(Cl)cc3)cc1Cl)=C2O (single isomer, unassigned) [Example 82]",≤ 100 nM
4,"Cc1cc(-c2cccc(S(C)(=O)=O)c2)c(Cl)cc1C1=C(O)C2(CCCN(CC(=O)NCc3ccccc3)C2)OC1=O (single isomer, unassigned) [Example 164]",≤ 100 nM
5,Cc1cc(-c2ccc(Cl)cc2)c(C)cc1C1=C(O)C2(CCC(C)C(C)C2)OC1=O (stereo not drawn) [Example 9],≤ 100 nM
6,Cc1cc(-c2ccc(Cl)cc2)c(C)cc1C1=C(O)C2(CCCCCC2)OC1=O [Example 10],≤ 100 nM
7,Cc1cc(-c2ccc(Cl)cc2)c(C)cc1C1=C(O)C2(CCC(=O)CC2)OC1=O [Example 11],≤ 100 nM
8,Cc1cc(-c2ccc(Cl)cc2)c(C)cc1C1=C(O)C2(CCC3CCCC3C2)OC1=O (stereo not drawn) [Example 12],≤ 100 nM
9,Cc1cc(-c2ccc(Cl)cc2)c(C)cc1C1=C(O)C2(CCCCC2OC(C)C)OC1=O (stereo not drawn) [Example 13],≤ 100 nM
10,CCOC1CCCCC12OC(=O)C(c1cc(C)c(-c3ccc(Cl)cc3)cc1C)=C2O (stereo not drawn) [Example 14],≤ 100 nM
11,COC1CCCCC12OC(=O)C(c1cc(C)c(-c3ccc(Cl)cc3)cc1C)=C2O (stereo not drawn) [Example 15],≤ 100 nM
12,"Cc1cc(-c2ccccc2)c(Cl)cc1C1=C(O)C2(CCCCC2)OC1=O [Example 17, 3-(2-Chloro-5-methylbiphenyl-4-yl)-4-hydroxy-1-oxaspiro[4.5]dec-3-en-2-one]",≤ 100 nM
13,Cc1ccc(-c2cc(C)c(C3=C(O)C4(CCCCC4)OC3=O)cc2Cl)cc1 [Example 22],≤ 100 nM
14,COc1ccc(-c2cc(C)c(C3=C(O)C4(CCCCC4)OC3=O)cc2Cl)cc1 [Example 23],≤ 100 nM
15,Cc1cc(-c2ccc3c(c2)OCO3)c(Cl)cc1C1=C(O)C2(CCCCC2)OC1=O [Example 24],≤ 100 nM
16,Cc1cc(-c2cccc(CO)c2)c(Cl)cc1C1=C(O)C2(CCCCC2)OC1=O [Example 26],≤ 100 nM
17,CC(=O)c1cccc(-c2cc(C)c(C3=C(O)C4(CCCCC4)OC3=O)cc2Cl)c1 [Example 27],≤ 100 nM
18,Cc1cc(-c2ccc(C(=O)O)cc2)c(Cl)cc1C1=C(O)C2(CCCCC2)OC1=O [Example 30],≤ 100 nM
19,Cc1cc(-c2cccc(Cl)c2)c(Cl)cc1C1=C(O)C2(CCCCC2)OC1=O [Example 31],≤ 100 nM
20,COc1cccc(-c2cc(C)c(C3=C(O)C4(CCCCC4)OC3=O)cc2Cl)c1 [Example 32],≤ 100 nM
21,Cc1cc(-c2cccc(C)c2C)c(Cl)cc1C1=C(O)C2(CCCCC2)OC1=O [Example 33],≤ 100 nM
22,Cc1cc(-c2cc(C)c(C3=C(O)C4(CCCCC4)OC3=O)cc2Cl)ccc1F [Example 34],≤ 100 nM

row,SMILES,IC50
1,Cc1cc(-c2ccc(OC(F)(F)F)cc2)c(Cl)cc1C1=C(O)C2(CCCCC2)OC1=O [Example 35],≤ 100 nM
2,Cc1cc(-c2cccc(S(C)(=O)=O)c2)c(Cl)cc1C1=C(O)C2(CCCCC2)OC1=O [Example 36],≤ 100 nM
3,Cc1cc(-c2cccc(C#N)c2)c(Cl)cc1C1=C(O)C2(CCCCC2)OC1=O [Example 37],≤ 100 nM
4,Cc1cc(-c2cccc(OC(F)(F)F)c2)c(Cl)cc1C1=C(O)C2(CCCCC2)OC1=O [Example 38],≤ 100 nM
5,Cc1cc(-c2cccc([N+](=O)[O-])c2)c(Cl)cc1C1=C(O)C2(CCCCC2)OC1=O [Example 40],≤ 100 nM
6,Cc1cc(-c2cccc(C(N)=O)c2)c(Cl)cc1C1=C(O)C2(CCCCC2)OC1=O [Example 41],≤ 100 nM
7,CCS(=O)(=O)c1ccc(-c2cc(C)c(C3=C(O)C4(CCCCC4)OC3=O)cc2Cl)cc1 [Example 42],≤ 100 nM
8,Cc1cc(-c2ccc(NC(=O)OC(C)(C)C)cc2)c(Cl)cc1C1=C(O)C2(CCCCC2)OC1=O [Example 43],≤ 100 nM
9,Cc1cc(-c2ccc(NC(=O)C(C)(C)C)cc2)c(Cl)cc1C1=C(O)C2(CCCCC2)OC1=O [Example 44],≤ 100 nM
10,"Cc1cc(-c2ccc([N+](=O)[O-])cc2)c(Cl)cc1C1=C(O)C2(CCCCC2)OC1=O [Example 47, 3-(2-chloro-5-methyl-4′-nitrobiphenyl-4-yl)-4-hydroxy-1-oxaspiro[4.5]dec-3-en-2-one]",≤ 100 nM
11,Cc1cc(-c2ccc(F)c([N+](=O)[O-])c2)c(Cl)cc1C1=C(O)C2(CCCCC2)OC1=O [Example 48],≤ 100 nM
12,Cc1cc(-c2ccc(C(=O)NC3CC3)cc2)c(Cl)cc1C1=C(O)C2(CCCCC2)OC1=O [Example 49],≤ 100 nM
13,Cc1cc(-c2cccc(C(=O)NC3CC3)c2)c(Cl)cc1C1=C(O)C2(CCCCC2)OC1=O [Example 50],≤ 100 nM
14,Cc1cc(-c2cccc(C(=O)NCCC#N)c2)c(Cl)cc1C1=C(O)C2(CCCCC2)OC1=O [Example 51],≤ 100 nM
15,Cc1cc(-c2ccc(C(=O)NCC(=O)O)cc2)c(Cl)cc1C1=C(O)C2(CCCCC2)OC1=O [Example 52],≤ 100 nM
16,COC1CCC2(CC1)OC(=O)C(c1cc(Cl)c(-c3ccccc3)cc1C)=C2O (stereo not drawn) [Example 53],≤ 100 nM
17,COC1CCC2(CC1)OC(=O)C(c1cc(Cl)c(-c3ccc(F)cc3)cc1C)=C2O (stereo not drawn) [Example 54],≤ 100 nM
18,CCOc1ccccc1-c1cc(C)c(C2=C(O)C3(CCC(OC)CC3)OC2=O)cc1Cl (stereo not drawn) [Example 55],≤ 100 nM
19,COC1CCC2(CC1)OC(=O)C(c1cc(C)c(-c3cccc(C#N)c3)cc1C)=C2O (stereo not drawn) [Example 56],≤ 100 nM
20,COC1CCC2(CC1)OC(=O)C(c1cc(C)c(-c3cccc(C(F)(F)F)c3)cc1C)=C2O (stereo not drawn) [Example 57],≤ 100 nM
21,COC1CCC2(CC1)OC(=O)C(c1cc(C)c(-c3ccc(Cl)cc3)cc1C)=C2O (stereo not drawn) [Example 58],≤ 100 nM
22,Cc1cc(-c2ccccc2)ccc1C1=C(O)C2(CCCCC2)OC1=O [Example 59],≤ 100 nM

row,SMILES,IC50
1,COc1cccc(-c2ccc(C3=C(O)C4(CCCCC4)OC3=O)c(C)c2)c1 [Example 60],≤ 100 nM
2,Cc1cc(-c2ccc(Cl)cc2)ccc1C1=C(O)C2(CCCCC2)OC1=O [Example 61],≤ 100 nM
3,COc1ccc(-c2ccc(C3=C(O)C4(CCCCC4)OC3=O)c(C)c2)cc1 [Example 62],≤ 100 nM
4,COc1cccc(-c2cc(Cl)c(C3=C(O)C4(CCCCC4)OC3=O)cc2C)c1 [Example 69],≤ 100 nM
5,Cc1cc(C2=C(O)C3(CCCCC3)OC2=O)c(Cl)cc1-c1ccc(Cl)cc1 [Example 70],≤ 100 nM
6,Cc1cc(C2=C(O)C3(CCCCC3)OC2=O)c(Cl)cc1-c1cccc(S(C)(=O)=O)c1 [Example 71],≤ 100 nM
7,"Cc1cc(-c2cccc(S(C)(=O)=O)c2)c(Cl)cc1C1=C(O)C2(CCN(C(=O)OCc3ccccc3)CC2)OC1=O [Example 72, benzyl 3-[2-chloro-5-methyl-3′-(methylsulfonyl)biphenyl-4-yl]-4-hydroxy-2-oxo-1-oxa-8-azaspiro[4.5]dec-3-ene-8-carboxylate]",≤ 100 nM
8,Cc1cc(-c2cccc(S(C)(=O)=O)c2)c(Cl)cc1C1=C(O)C2(CCC3CCCC3C2)OC1=O (stereo not drawn) [Example 84],≤ 100 nM
9,Cc1cc(-c2cccc([N+](=O)[O-])c2)c(Cl)cc1C1=C(O)C2(CCC3CCCC3C2)OC1=O (stereo not drawn) [Example 88],≤ 100 nM
10,Cc1cc(-c2ccc([N+](=O)[O-])cc2)c(Cl)cc1C1=C(O)C2(CCC3CCCC3C2)OC1=O (stereo not drawn) [Example 89],≤ 100 nM
11,Cc1cc(-c2cccc(NS(C)(=O)=O)c2)c(Cl)cc1C1=C(O)C2(CCN(C(=O)OCc3ccccc3)CC2)OC1=O [Example 91],≤ 100 nM
12,Cc1cc(-c2cc(NS(C)(=O)=O)ccc2F)c(Cl)cc1C1=C(O)C2(CCCCC2)OC1=O [Example 92],≤ 100 nM
13,CCOc1cc(-c2cccc(S(C)(=O)=O)c2)c(C)cc1C1=C(O)C2(CCCCC2)OC1=O [Example 93],≤ 100 nM
14,Cc1cc(-c2cccc(NS(C)(=O)=O)c2)c(Cl)cc1C1=C(O)C2(CCCN(CC(=O)NCc3ccccc3)C2)OC1=O (stereo not drawn) [Example 97],≤ 100 nM
15,Cc1cc(-c2cccc(S(C)(=O)=O)c2)c(Cl)cc1C1=C(O)C2(CCCN(Cc3nc4ccccc4[nH]3)C2)OC1=O (stereo not drawn) [Example 99],≤ 100 nM
16,Cc1cc(-c2cccc(S(C)(=O)=O)c2)c(Cl)cc1C1=C(O)C2(CCCN(C(=O)CCOc3ccccc3)C2)OC1=O (stereo not drawn) [Example 100],≤ 100 nM
17,Cc1cc(-c2cccc(S(C)(=O)=O)c2)c(Cl)cc1C1=C(O)C2(CCCN(CC(=O)NC(C)C)C2)OC1=O (stereo not drawn) [Example 101],≤ 100 nM
18,Cc1cc(-c2cccc(S(C)(=O)=O)c2)c(Cl)cc1C1=C(O)C2(CCCN(C(C)C3=NOCCO3)C2)OC1=O (stereo not drawn) [Example 102],≤ 100 nM
19,CC(=O)N1CCCC2(C1)OC(=O)C(c1cc(Cl)c(-c3cccc(S(C)(=O)=O)c3)cc1C)=C2O (stereo not drawn) [Example 104],≤ 100 nM
20,Cc1cc(-c2cccc(S(C)(=O)=O)c2)c(Cl)cc1C1=C(O)C2(CCCN(C(=O)N3CCOCC3)C2)OC1=O (stereo not drawn) [Example 106],≤ 100 nM
21,Cc1cc(-c2cccc(S(C)(=O)=O)c2)c(Cl)cc1C1=C(O)C2(CCCN(C(=O)CCC(=O)c3ccccn3)C2)OC1=O (stereo not drawn) [Example 108],≤ 100 nM
22,Cc1cc(-c2cccc(S(C)(=O)=O)c2)c(Cl)cc1C1=C(O)C2(CCN(C(=O)CCc3ccc(S(C)(=O)=O)cc3)CC2)OC1=O [Example 109],≤ 100 nM

# From US20100022527A1, “BIPHENYL SUBSTITUTED SPIROTETRONIC ACIDS AND THEIR USE FOR THE TREATMENT OF RETROVIRAL DISEASES” (priority 2006, published 2010)
